Earlier results as cited in patent publication US20230364199A1, “IMPROVEMENT OF PHYSICAL AND MENTAL WELL-BEING OF PATIENTS WITH HYPOPARATHYROIDISM” (ASCENDIS PHARMA BONE DISEASES A/S, priority 2020, published 2023).

Legend:
[1] = tested on: patients with hypoparathyroidism
[2] = tested on: adults with chronic hypoparathyroidism; conditions: supplements adjusted to target serum calcium
[3] = tested on: patients with hypoparathyroidism; conditions: 54 patients, after 1 year of treatment, every other day

Molecule	9-min walk-run test ([1]; seven patients, before and after 3 years of treatment, twice a day)	fatigue and physical endurance described by patients ([1]; several patients, during PTH treatment)	QoL (SF-36), between-group differences versus placebo [2]	QoL, mental component score and physical component score (RAND 36-Item Health Survey) [3]
PTH 1-34: PTH polypeptide of SEQ ID NO: 51 (PTH 1-34) (SVSEIQLMHNLGKHLNSMERVEWLRKKLQDVHNF; human PTH 1-34)	no significant changes	less fatigue and greater physical endurance	–	–
PTH 1-84: PTH polypeptide of SEQ ID NO: 1 (PTH 1-84) (protein, listed as Homo sapiens) SVSEIQLMHNLGKHLNSMERVEWLRKKLQDVHNFVALGAPLAPRDAGSQRPRKKEDNVLVESHEKSLGEADKADVNVLTKAKSQ	–	–	not statistically significant	improvement in QoL
